Results: the NIST ThermoML archive (doi:10.1021/je050052+)

Test: excess molar enthalpy (molar enthalpy of mixing); xn = mol fraction of the nth substance listed
Settings: Liquid, Flow calorimetry

COC(=O)OC [dimethyl carbonate] + CCCO
Settings	excess molar enthalpy [kcal/mol]
298.15 K, 1000 kPa, x1 = 0.05	0.108
298.15 K, 1000 kPa, x1 = 0.1	0.2025
298.15 K, 1000 kPa, x1 = 0.15	0.2782
298.15 K, 1000 kPa, x1 = 0.2	0.3401
298.15 K, 1000 kPa, x1 = 0.25	0.3833
298.15 K, 1000 kPa, x1 = 0.3	0.4194
298.15 K, 1000 kPa, x1 = 0.35	0.447
298.15 K, 1000 kPa, x1 = 0.4	0.4608
298.15 K, 1000 kPa, x1 = 0.45	0.4692
298.15 K, 1000 kPa, x1 = 0.5	0.4679
298.15 K, 1000 kPa, x1 = 0.55	0.4588
298.15 K, 1000 kPa, x1 = 0.6	0.4437
298.15 K, 1000 kPa, x1 = 0.65	0.4199
298.15 K, 1000 kPa, x1 = 0.7	0.3883
298.15 K, 1000 kPa, x1 = 0.75	0.3492
298.15 K, 1000 kPa, x1 = 0.8	0.2996
298.15 K, 1000 kPa, x1 = 0.85	0.2396
298.15 K, 1000 kPa, x1 = 0.9515	0.0831
313.15 K, 1000 kPa, x1 = 0.0485	0.1015
313.15 K, 1000 kPa, x1 = 0.1002	0.2101
313.15 K, 1000 kPa, x1 = 0.1512	0.2976
313.15 K, 1000 kPa, x1 = 0.2017	0.3682
313.15 K, 1000 kPa, x1 = 0.2516	0.4232
313.15 K, 1000 kPa, x1 = 0.3009	0.4634
313.15 K, 1000 kPa, x1 = 0.3497	0.4921
313.15 K, 1000 kPa, x1 = 0.4014	0.5134
313.15 K, 1000 kPa, x1 = 0.449	0.5231
313.15 K, 1000 kPa, x1 = 0.4995	0.5234
313.15 K, 1000 kPa, x1 = 0.5494	0.5136
313.15 K, 1000 kPa, x1 = 0.5987	0.4971
313.15 K, 1000 kPa, x1 = 0.6506	0.4702
313.15 K, 1000 kPa, x1 = 0.6988	0.4383
313.15 K, 1000 kPa, x1 = 0.7495	0.3945
313.15 K, 1000 kPa, x1 = 0.8491	0.2714
313.15 K, 1000 kPa, x1 = 0.901	0.1899
313.15 K, 1000 kPa, x1 = 0.9493	0.0957
313.15 K, 10000 kPa, x1 = 0.0482	0.1172
313.15 K, 10000 kPa, x1 = 0.0996	0.2233
313.15 K, 10000 kPa, x1 = 0.1504	0.3101
313.15 K, 10000 kPa, x1 = 0.2007	0.3795
313.15 K, 10000 kPa, x1 = 0.2505	0.4328
313.15 K, 10000 kPa, x1 = 0.2997	0.4731
313.15 K, 10000 kPa, x1 = 0.3483	0.502
313.15 K, 10000 kPa, x1 = 0.3999	0.5218
313.15 K, 10000 kPa, x1 = 0.4509	0.5315
313.15 K, 10000 kPa, x1 = 0.5013	0.5316
313.15 K, 10000 kPa, x1 = 0.5512	0.5228
313.15 K, 10000 kPa, x1 = 0.6005	0.5047
313.15 K, 10000 kPa, x1 = 0.6493	0.4798
313.15 K, 10000 kPa, x1 = 0.7007	0.4413
313.15 K, 10000 kPa, x1 = 0.7515	0.3942
313.15 K, 10000 kPa, x1 = 0.8514	0.2719
313.15 K, 10000 kPa, x1 = 0.9005	0.1934
313.15 K, 10000 kPa, x1 = 0.949	0.09892
328.15 K, 1000 kPa, x1 = 0.05	0.1178
328.15 K, 1000 kPa, x1 = 0.1	0.2285
328.15 K, 1000 kPa, x1 = 0.15	0.3207
328.15 K, 1000 kPa, x1 = 0.2	0.3941
328.15 K, 1000 kPa, x1 = 0.25	0.4542
328.15 K, 1000 kPa, x1 = 0.3	0.4986
328.15 K, 1000 kPa, x1 = 0.35	0.5304
328.15 K, 1000 kPa, x1 = 0.4	0.553
328.15 K, 1000 kPa, x1 = 0.45	0.5666
328.15 K, 1000 kPa, x1 = 0.5	0.5671
328.15 K, 1000 kPa, x1 = 0.55	0.5597
328.15 K, 1000 kPa, x1 = 0.6	0.5432
328.15 K, 1000 kPa, x1 = 0.65	0.5174
328.15 K, 1000 kPa, x1 = 0.7	0.4791
328.15 K, 1000 kPa, x1 = 0.75	0.4296
328.15 K, 1000 kPa, x1 = 0.85	0.2956
328.15 K, 1000 kPa, x1 = 0.9	0.2109
328.15 K, 1000 kPa, x1 = 0.95	0.1065

COC(=O)OC [dimethyl carbonate] + CC(C)O
Settings	excess molar enthalpy [kcal/mol]
298.15 K, 1000 kPa, x1 = 0.05	0.1201
298.15 K, 1000 kPa, x1 = 0.1	0.222
298.15 K, 1000 kPa, x1 = 0.15	0.3028
298.15 K, 1000 kPa, x1 = 0.2	0.3695
298.15 K, 1000 kPa, x1 = 0.25	0.4209
298.15 K, 1000 kPa, x1 = 0.3	0.4599
298.15 K, 1000 kPa, x1 = 0.35	0.4899
298.15 K, 1000 kPa, x1 = 0.4	0.5097
298.15 K, 1000 kPa, x1 = 0.45	0.5212
298.15 K, 1000 kPa, x1 = 0.5	0.5264
298.15 K, 1000 kPa, x1 = 0.55	0.5191
298.15 K, 1000 kPa, x1 = 0.6	0.5048
298.15 K, 1000 kPa, x1 = 0.65	0.4805
298.15 K, 1000 kPa, x1 = 0.7	0.4459
298.15 K, 1000 kPa, x1 = 0.75	0.4012
298.15 K, 1000 kPa, x1 = 0.8	0.3425
298.15 K, 1000 kPa, x1 = 0.95	0.1068
313.15 K, 100 kPa, x1 = 0.0483	0.1117
313.15 K, 100 kPa, x1 = 0.0998	0.2227
313.15 K, 100 kPa, x1 = 0.1507	0.3146
313.15 K, 100 kPa, x1 = 0.2011	0.388
313.15 K, 100 kPa, x1 = 0.2509	0.4473
313.15 K, 100 kPa, x1 = 0.3002	0.4924
313.15 K, 100 kPa, x1 = 0.3489	0.5277
313.15 K, 100 kPa, x1 = 0.4005	0.5535
313.15 K, 100 kPa, x1 = 0.4515	0.5679
313.15 K, 100 kPa, x1 = 0.4986	0.5718
313.15 K, 100 kPa, x1 = 0.5485	0.5651
313.15 K, 100 kPa, x1 = 0.6011	0.5502
313.15 K, 100 kPa, x1 = 0.6498	0.5244
313.15 K, 100 kPa, x1 = 0.7012	0.4887
313.15 K, 100 kPa, x1 = 0.7488	0.4419
313.15 K, 100 kPa, x1 = 0.8486	0.3137
313.15 K, 100 kPa, x1 = 0.9007	0.2235
313.15 K, 100 kPa, x1 = 0.9492	0.1156
313.15 K, 1000 kPa, x1 = 0.0483	0.1108
313.15 K, 1000 kPa, x1 = 0.0998	0.2231
313.15 K, 1000 kPa, x1 = 0.1507	0.3136
313.15 K, 1000 kPa, x1 = 0.201	0.3871
313.15 K, 1000 kPa, x1 = 0.2508	0.4465
313.15 K, 1000 kPa, x1 = 0.3	0.4932
313.15 K, 1000 kPa, x1 = 0.3487	0.5283
313.15 K, 1000 kPa, x1 = 0.4003	0.5534
313.15 K, 1000 kPa, x1 = 0.4513	0.5642
313.15 K, 1000 kPa, x1 = 0.4984	0.5678
313.15 K, 1000 kPa, x1 = 0.5516	0.5622
313.15 K, 1000 kPa, x1 = 0.6009	0.5476
313.15 K, 1000 kPa, x1 = 0.6497	0.5221
313.15 K, 1000 kPa, x1 = 0.7011	0.486
313.15 K, 1000 kPa, x1 = 0.7487	0.4405
313.15 K, 1000 kPa, x1 = 0.8486	0.3109
313.15 K, 1000 kPa, x1 = 0.9007	0.2209
313.15 K, 1000 kPa, x1 = 0.9491	0.1173
313.15 K, 10000 kPa, x1 = 0.0517	0.1095
313.15 K, 10000 kPa, x1 = 0.0992	0.212
313.15 K, 10000 kPa, x1 = 0.1499	0.303
313.15 K, 10000 kPa, x1 = 0.2	0.3768
313.15 K, 10000 kPa, x1 = 0.2497	0.4355
313.15 K, 10000 kPa, x1 = 0.2988	0.4813
313.15 K, 10000 kPa, x1 = 0.3508	0.5177
313.15 K, 10000 kPa, x1 = 0.3989	0.5407
313.15 K, 10000 kPa, x1 = 0.4499	0.5557
313.15 K, 10000 kPa, x1 = 0.5003	0.5598
313.15 K, 10000 kPa, x1 = 0.5501	0.5537
313.15 K, 10000 kPa, x1 = 0.5995	0.5393
313.15 K, 10000 kPa, x1 = 0.6515	0.5131
313.15 K, 10000 kPa, x1 = 0.6998	0.48
313.15 K, 10000 kPa, x1 = 0.7507	0.4325
313.15 K, 10000 kPa, x1 = 0.8011	0.3729
313.15 K, 10000 kPa, x1 = 0.8509	0.3054
313.15 K, 10000 kPa, x1 = 0.9001	0.2228
313.15 K, 10000 kPa, x1 = 0.9488	0.1259
328.15 K, 1000 kPa, x1 = 0.05	0.1293
328.15 K, 1000 kPa, x1 = 0.1	0.2339
328.15 K, 1000 kPa, x1 = 0.15	0.3279
328.15 K, 1000 kPa, x1 = 0.2	0.4052
328.15 K, 1000 kPa, x1 = 0.25	0.4674
328.15 K, 1000 kPa, x1 = 0.3	0.5156
328.15 K, 1000 kPa, x1 = 0.35	0.5557
328.15 K, 1000 kPa, x1 = 0.4	0.5822
328.15 K, 1000 kPa, x1 = 0.45	0.5962
328.15 K, 1000 kPa, x1 = 0.5	0.6034
328.15 K, 1000 kPa, x1 = 0.55	0.5992
328.15 K, 1000 kPa, x1 = 0.6	0.5851
328.15 K, 1000 kPa, x1 = 0.65	0.5559
328.15 K, 1000 kPa, x1 = 0.7	0.5128
328.15 K, 1000 kPa, x1 = 0.75	0.4679
328.15 K, 1000 kPa, x1 = 0.8	0.4034
328.15 K, 1000 kPa, x1 = 0.85	0.3257
328.15 K, 1000 kPa, x1 = 0.9	0.2299
328.15 K, 1000 kPa, x1 = 0.95	0.1163
